From ChEMBL document CHEMBL1201862, “PubChem BioAssay data set” (2004)
Active and inactive are the calls of the source.

Key:
HeLa [1] = experiment: PMA/Ionomycin induced NF-kB luciferase in HeLa cells. [Related pubchem assays (depositor defined):AID1266, AID1269, AID1270, AID1271, AID1280, AID1281, AID1282, AID1283, AID1287, AID1289, AID1290, AID1291, AID1292, AID1293, AID1294, AID1295, AID1299, AID1302, AID1364, AID1365, AID1366, AID1367, AID1368, AID1369, AID1370, AID1371, AID1372, AID1373 …; format: functional, cell-based; details: Homo sapiens
MCF7 [2] = experiment: GM-Tri-DAP induced IL-8 production in MCF-7/NOD1 cells. [Related pubchem assays (depositor defined):AID1266, AID1269, AID1270, AID1271, AID1280, AID1281, AID1282, AID1283, AID1287, AID1289, AID1290, AID1291, AID1292, AID1293, AID1294, AID1295, AID1299, AID1302, AID1364, AID1365, AID1366, AID1367, AID1368, AID1369, AID1371, AID1372, AID1373 …; format: functional, cell-based; details: Homo sapiens
[3] = Anti-cd3/cd28 induced T cell proliferation of mouse primary lymphocytes. [Related pubchem assays: 1299, 1270, 1295, 1375, 1287, 1281, 1293, 1291, 1289, 1280, 465, 1282, 1372, 1365, 1370, 1367, 1366, 1266, 1269, 1373, 1292, 1290, 1302, 1371, 1283, 1271, 1294, 1374, 1368, 1369 ]; format: functional, cell-based
HEK293 [4] = experiment: cells; details: Homo sapiens
HEK293 [5] = experiment: Cytotoxicity assay in HEK293 cells. [Related pubchem assays (depositor defined):AID1266, AID1269, AID1270, AID1271, AID1280, AID1281, AID1282, AID1283, AID1287, AID1289, AID1290, AID1291, AID1292, AID1293, AID1294, AID1295, AID1299, AID1302, AID1364, AID1365, AID1366, AID1367, AID1369, AID1370, AID1371, AID1372, AID1373, AID1374, AID1375, AID1384 …; format: functional, cell-based; details: Homo sapiens
HEK293 [6] = experiment: cells; details: Homo sapiens; remark: listed apart in the source
HEK293 [7] = experiment: cells; details: Homo sapiens; remark: listed apart in the source
HEK293 [8] = experiment: cells; details: Homo sapiens; remark: listed apart in the source
HEK293 [9] = experiment: cells; details: Homo sapiens; remark: listed apart in the source
HEK293 [10] = experiment: PMA/Ionomycin induced NF-kB luciferase assay in 293- NF-kB-Luc stable cells. [Related pubchem assays: 1299, 1270, 1295, 1375, 1287, 1281, 1293, 1291, 1289, 1280, 465, 1364, 1282, 1372, 1365, 1370, 1367, 1366, 1269, 1373, 1292, 1290, 1302, 1371, 1283, 1271, 1294, 1374, 1368, 1369 ]; format: functional, cell-based; details: Homo sapiens
[11] = Anti-IgM induced B cell proliferation of mouse primary lymphocytes. [Related pubchem assays: 1266, 1299, 1269, 1373, 1292, 1290, 1302, 1371, 1283, 1270, 1295, 1271, 1375, 1294, 1287, 1374, 1281, 1293, 1291, 1289, 1280, 465, 1368, 1364, 1282, 1372, 1369, 1370, 1367, 1366 ]; format: functional, cell-based
MCF7 [12] = experiment: Cytotoxicity assay in MCF7 cells. [Related pubchem assays (depositor defined):AID1266, AID1269, AID1270, AID1271, AID1280, AID1281, AID1282, AID1283, AID1287, AID1289, AID1290, AID1291, AID1292, AID1293, AID1294, AID1295, AID1299, AID1302, AID1364, AID1365, AID1366, AID1367, AID1368, AID1369, AID1370, AID1371, AID1372, AID1374, AID1375, AID1384 …; format: functional, cell-based; details: Homo sapiens
HEK293 [13] = experiment: PMA/Ionomycin-induced IL-8 production in HEK293- NF-kB-Luc stable cells. [Related pubchem assays: 1299, 1295, 1375, 1287, 1281, 1293, 1291, 1289, 1280, 465, 1364, 1282, 1372, 1365, 1367, 1366, 1266, 1269, 1373, 1292, 1290, 1302, 1371, 1283, 1271, 1294, 1374, 1368, 1369 ]; format: functional, cell-based; details: Homo sapiens
HEK293 [14] = experiment: cells; details: Homo sapiens; remark: listed apart in the source
HeLa [15] = experiment: Cytotoxicity Assay in HeLa Cells. [Related pubchem assays: 1299, 1270, 1295, 1375, 1287, 1281, 1293, 1291, 1289, 1280, 465, 1364, 1282, 1372, 1365, 1370, 1367, 1366, 1266, 1269, 1373, 1292, 1290, 1371, 1283, 1271, 1294, 1374, 1368, 1369 ]; format: functional, cell-based; details: Homo sapiens
[16] = target: Luciferin 4-monooxygenase (Photinus pyralis, UniProt P08659); experiment: In vitro luciferase assay using purified luciferase. [Related pubchem assays: 1299, 1270, 1295, 1375, 1287, 1281, 1293, 1291, 1289, 1280, 465, 1364, 1282, 1372, 1365, 1370, 1367, 1366, 1266, 1373, 1292, 1290, 1302, 1371, 1283, 1271, 1294, 1374, 1368, 1369 ]
[17] = target: Protein kinase C beta type (Homo sapiens, UniProt P05771); experiment: In Vitro Kinase Assay Using Purified Enzyme PKC-beta. [Related pubchem assays: 1299, 1270, 1295, 1375, 1287, 1281, 1293, 1291, 1289, 465, 1364, 1282, 1372, 1365, 1370, 1367, 1366, 1266, 1269, 1373, 1292, 1290, 1302, 1371, 1283, 1271, 1294, 1374, 1368, 1369 ]
[18] = target: Inhibitor of nuclear factor kappa-B kinase subunit beta (Homo sapiens, UniProt O14920); experiment: In Vitro Kinase Assay Using Purified Enzyme IKK-beta. [Related pubchem assays: 1266, 1299, 1269, 1373, 1292, 1290, 1302, 1371, 1283, 1270, 1295, 1271, 1375, 1294, 1287, 1374, 1281, 1293, 1291, 1289, 1280, 465, 1368, 1364, 1372, 1365, 1369, 1370, 1367, 1366 ]
HEK293 [19] = experiment: TNF Induced NF-kB Luciferase in 293-NF-kB-Luc Stable Cells. [Related pubchem assays: 1266, 1299, 1269, 1373, 1292, 1290, 1302, 1371, 1283, 1270, 1295, 1271, 1375, 1294, 1374, 1281, 1293, 1291, 1289, 1280, 465, 1368, 1364, 1282, 1372, 1365, 1369, 1370, 1367, 1366 ]; format: functional, cell-based; details: Homo sapiens
HEK293 [20] = experiment: cells; details: Homo sapiens; remark: listed apart in the source
HEK293 [21] = experiment: cells; details: Homo sapiens; remark: listed apart in the source
[22] = target: Protein kinase C theta type (Homo sapiens, UniProt Q04759); experiment: In Vitro Kinase Assay Using Purified Enzyme PKC-theta. [Related pubchem assays: 1299, 1270, 1295, 1375, 1287, 1281, 1293, 1291, 1289, 1280, 465, 1364, 1282, 1372, 1365, 1370, 1367, 1366, 1266, 1269, 1373, 1292, 1290, 1302, 1371, 1271, 1294, 1374, 1368, 1369 ]
HEK293 [23] = experiment: cells; details: Homo sapiens; remark: listed apart in the source
THP-1 = experiment: LPS induced NF-kB in THP.1 cells. [Related pubchem assays (depositor defined):AID1266, AID1269, AID1270, AID1271, AID1280, AID1281, AID1282, AID1283, AID1287, AID1289, AID1290, AID1291, AID1292, AID1293, AID1294, AID1295, AID1299, AID1302, AID1364, AID1365, AID1366, AID1367, AID1368, AID1370, AID1371, AID1372, AID1373, AID1374, AID1375, AID1384 …; format: functional, cell-based; details: Homo sapiens
Jurkat [24] = experiment: IL-2 Production Assay in Jurkat T-cells Stimulated with anti-CD3/anti-CD28 antibodies. [Related pubchem assays: 1299, 1270, 1295, 1375, 1287, 1281, 1293, 1291, 1289, 1280, 465, 1364, 1282, 1372, 1365, 1370, 1367, 1366, 1266, 1269, 1373, 1292, 1290, 1302, 1371, 1283, 1294, 1374, 1368, 1369 ]; format: functional, cell-based; details: Homo sapiens
HEK293 [25] = experiment: cells; details: Homo sapiens; remark: listed apart in the source
PPC-1 = experiment: PMA/Ionomycin induced NF-kB luciferase in PPC-1 cells. [Related pubchem assays (depositor defined):AID1266, AID1269, AID1270, AID1271, AID1280, AID1281, AID1282, AID1283, AID1287, AID1289, AID1290, AID1291, AID1292, AID1293, AID1294, AID1295, AID1299, AID1302, AID1364, AID1365, AID1366, AID1367, AID1368, AID1369, AID1370, AID1371, AID1372, AID1373 …; format: functional, cell-based; details: Homo sapiens
Jurkat [26] = experiment: Cytotoxicity assay in Jurkat T cells. [Related pubchem assays (depositor defined):AID1266, AID1269, AID1270, AID1271, AID1280, AID1281, AID1282, AID1283, AID1287, AID1289, AID1290, AID1291, AID1292, AID1293, AID1294, AID1295, AID1299, AID1302, AID1364, AID1365, AID1366, AID1368, AID1369, AID1370, AID1371, AID1372, AID1373, AID1374, AID1375 …; format: functional, cell-based; details: Homo sapiens
MCF7 [27] = experiment: PMA/Ionomycin induced NF-kB luciferase in MCF7 cells. [Related pubchem assays (depositor defined):AID1266, AID1269, AID1270, AID1271, AID1280, AID1281, AID1282, AID1283, AID1287, AID1289, AID1290, AID1291, AID1292, AID1293, AID1294, AID1295, AID1299, AID1302, AID1364, AID1365, AID1367, AID1368, AID1369, AID1370, AID1371, AID1372, AID1373, AID1374 …; format: functional, cell-based; details: Homo sapiens
[28] = HepG2 cell cytotoxicity, dose response, cytotoxicity control for non-replicating M. tuberculosis project (AID 489018); format: functional; details: Mycobacterium tuberculosis
Vero [29] = experiment: cells; format: functional; details: Chlorocebus sabaeus
Vero [30] = experiment: host cell cytotoxicity of antiviral hits, dose response, cytotoxicity control for West Nile virus antiviral project, secondary assay (AID 1650); format: functional; details: Chlorocebus sabaeus
Vero [31] = experiment: cells; format: functional, cell-based; details: Chlorocebus sabaeus
[32] = THP-1 cell cytotoxicity, dose response, cytotoxicity control for non-replicating M. tuberculosis project (AID 489025); format: functional
CAAX prenyl protease 2 = CAAX prenyl protease 2 (Saccharomyces cerevisiae S288c, UniProt Q03530); format: biochemical
CAAX prenyl protease 1 = CAAX prenyl protease 1 (Saccharomyces cerevisiae S288c, UniProt P47154); experiment: Ste24 protease inhibitors, dose response, biochemical, S. cerevisiae, plate reader, cherry-pick (AID 488815)
[33] = Luminescence Cell-Based Dose Retest to Confirm Inhibitors of Cancer Stem Cells. [Related pubchem assays (depositor defined):AID2717, AID2721]; format: functional; details: Homo sapiens

Protein kinase C beta type, sequence (P05771 whole entry): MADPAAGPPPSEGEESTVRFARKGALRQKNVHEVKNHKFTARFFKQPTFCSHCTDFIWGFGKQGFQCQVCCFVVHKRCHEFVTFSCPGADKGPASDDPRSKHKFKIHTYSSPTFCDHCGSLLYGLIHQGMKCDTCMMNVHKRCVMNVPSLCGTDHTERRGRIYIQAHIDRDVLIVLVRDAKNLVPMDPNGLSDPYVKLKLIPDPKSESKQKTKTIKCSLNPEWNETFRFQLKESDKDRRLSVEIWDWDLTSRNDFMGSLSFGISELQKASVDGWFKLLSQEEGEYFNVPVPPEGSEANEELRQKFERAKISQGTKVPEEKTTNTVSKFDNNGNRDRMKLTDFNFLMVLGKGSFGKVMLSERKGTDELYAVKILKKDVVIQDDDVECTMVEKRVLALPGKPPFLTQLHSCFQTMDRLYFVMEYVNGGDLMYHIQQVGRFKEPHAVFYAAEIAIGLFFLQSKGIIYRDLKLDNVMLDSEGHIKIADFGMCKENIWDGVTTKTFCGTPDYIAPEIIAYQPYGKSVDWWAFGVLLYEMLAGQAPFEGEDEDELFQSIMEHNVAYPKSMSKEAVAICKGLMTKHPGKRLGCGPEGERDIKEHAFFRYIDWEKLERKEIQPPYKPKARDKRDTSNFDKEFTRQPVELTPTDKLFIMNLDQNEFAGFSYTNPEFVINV
Protein kinase C theta type, sequence (Q04759 whole entry): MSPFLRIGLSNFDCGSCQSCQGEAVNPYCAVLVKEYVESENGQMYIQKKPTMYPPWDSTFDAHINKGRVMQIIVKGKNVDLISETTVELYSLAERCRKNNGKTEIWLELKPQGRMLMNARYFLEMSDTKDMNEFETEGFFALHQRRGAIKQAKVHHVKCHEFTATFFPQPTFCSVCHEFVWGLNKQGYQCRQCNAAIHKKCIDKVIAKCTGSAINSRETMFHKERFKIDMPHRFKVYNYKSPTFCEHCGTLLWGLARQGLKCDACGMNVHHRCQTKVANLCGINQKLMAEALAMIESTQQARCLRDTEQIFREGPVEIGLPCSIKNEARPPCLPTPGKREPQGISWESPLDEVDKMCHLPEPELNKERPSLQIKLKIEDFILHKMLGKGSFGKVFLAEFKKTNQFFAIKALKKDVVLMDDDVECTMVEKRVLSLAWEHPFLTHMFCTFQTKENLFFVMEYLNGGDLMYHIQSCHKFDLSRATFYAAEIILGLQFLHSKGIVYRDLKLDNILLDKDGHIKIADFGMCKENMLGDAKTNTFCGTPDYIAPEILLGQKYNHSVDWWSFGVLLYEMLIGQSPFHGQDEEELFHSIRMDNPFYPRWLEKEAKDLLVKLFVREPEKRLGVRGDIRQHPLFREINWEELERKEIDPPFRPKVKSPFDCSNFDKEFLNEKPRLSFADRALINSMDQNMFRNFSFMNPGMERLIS
Inhibitor of nuclear factor kappa-B kinase subunit beta, sequence (O14920 whole entry): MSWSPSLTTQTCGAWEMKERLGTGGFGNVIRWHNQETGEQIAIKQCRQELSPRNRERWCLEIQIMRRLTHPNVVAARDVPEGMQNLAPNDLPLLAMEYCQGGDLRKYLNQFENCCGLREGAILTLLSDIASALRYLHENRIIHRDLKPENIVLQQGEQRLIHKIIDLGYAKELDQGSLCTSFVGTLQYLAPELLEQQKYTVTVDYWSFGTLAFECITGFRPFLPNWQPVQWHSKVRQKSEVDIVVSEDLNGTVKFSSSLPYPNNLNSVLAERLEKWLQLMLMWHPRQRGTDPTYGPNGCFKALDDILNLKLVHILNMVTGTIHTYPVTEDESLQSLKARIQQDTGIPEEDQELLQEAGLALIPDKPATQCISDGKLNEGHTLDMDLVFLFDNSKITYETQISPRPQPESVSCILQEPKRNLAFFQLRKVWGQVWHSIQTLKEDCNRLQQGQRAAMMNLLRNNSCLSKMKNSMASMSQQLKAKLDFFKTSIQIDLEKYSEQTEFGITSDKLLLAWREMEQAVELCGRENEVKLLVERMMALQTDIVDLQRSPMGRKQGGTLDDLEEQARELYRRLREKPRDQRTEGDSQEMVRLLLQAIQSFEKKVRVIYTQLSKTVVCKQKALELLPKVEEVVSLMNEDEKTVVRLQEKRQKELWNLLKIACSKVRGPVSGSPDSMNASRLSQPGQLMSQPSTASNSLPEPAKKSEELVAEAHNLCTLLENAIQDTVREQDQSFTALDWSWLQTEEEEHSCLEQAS
CAAX prenyl protease 2, sequence (Q03530 whole entry): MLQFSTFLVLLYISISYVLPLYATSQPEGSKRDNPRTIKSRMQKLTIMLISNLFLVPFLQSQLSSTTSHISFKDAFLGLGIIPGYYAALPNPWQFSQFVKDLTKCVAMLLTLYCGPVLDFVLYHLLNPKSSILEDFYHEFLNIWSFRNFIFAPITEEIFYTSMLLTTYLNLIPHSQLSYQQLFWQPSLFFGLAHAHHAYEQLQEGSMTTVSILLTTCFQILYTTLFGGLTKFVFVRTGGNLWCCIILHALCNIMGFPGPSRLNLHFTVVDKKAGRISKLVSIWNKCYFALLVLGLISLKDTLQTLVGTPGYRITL
Luciferin 4-monooxygenase, sequence (P08659 whole entry): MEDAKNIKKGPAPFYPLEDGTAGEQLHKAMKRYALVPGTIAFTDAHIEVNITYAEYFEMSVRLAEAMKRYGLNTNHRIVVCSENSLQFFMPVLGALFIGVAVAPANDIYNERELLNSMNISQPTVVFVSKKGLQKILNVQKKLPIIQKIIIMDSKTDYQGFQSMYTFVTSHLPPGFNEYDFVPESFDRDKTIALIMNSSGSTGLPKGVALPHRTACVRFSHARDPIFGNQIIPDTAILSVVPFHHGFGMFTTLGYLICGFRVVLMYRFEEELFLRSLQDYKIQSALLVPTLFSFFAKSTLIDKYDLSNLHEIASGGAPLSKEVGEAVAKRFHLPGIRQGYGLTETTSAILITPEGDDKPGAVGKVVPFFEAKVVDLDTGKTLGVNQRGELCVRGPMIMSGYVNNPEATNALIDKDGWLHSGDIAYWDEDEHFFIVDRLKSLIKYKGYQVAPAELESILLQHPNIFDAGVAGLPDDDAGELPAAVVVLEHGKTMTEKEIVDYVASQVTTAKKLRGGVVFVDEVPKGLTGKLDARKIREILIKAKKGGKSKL
CAAX prenyl protease 1, sequence (P47154 whole entry): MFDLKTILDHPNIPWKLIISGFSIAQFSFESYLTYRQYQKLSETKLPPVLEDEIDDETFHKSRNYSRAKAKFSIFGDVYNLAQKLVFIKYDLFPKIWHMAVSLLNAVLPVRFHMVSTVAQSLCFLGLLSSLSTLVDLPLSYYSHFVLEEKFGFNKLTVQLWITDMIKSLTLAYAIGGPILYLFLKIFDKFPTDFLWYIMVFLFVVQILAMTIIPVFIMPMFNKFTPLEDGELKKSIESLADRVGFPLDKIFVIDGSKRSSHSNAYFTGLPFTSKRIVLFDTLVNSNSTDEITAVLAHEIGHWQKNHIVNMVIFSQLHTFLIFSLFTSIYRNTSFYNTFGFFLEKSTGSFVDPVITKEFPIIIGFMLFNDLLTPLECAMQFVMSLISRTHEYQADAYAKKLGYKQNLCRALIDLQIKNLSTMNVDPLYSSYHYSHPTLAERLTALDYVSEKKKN

Cc1cc2nc(NCCCO)n(CC(=O)c3cc(C(C)(C)C)c(O)c(C(C)(C)C)c3)c2cc1C
inactive: EC50 (HeLa [1]) > 4 µM | EC50 (MCF7 [2]) > 8 µM | EC50 (HEK293 [4]) > 4 µM | EC50 (HEK293 [5]) > 8 µM | EC50 (HEK293 [6]) > 4 µM | EC50 (MCF7 [12]) > 8 µM | EC50 (THP-1) 5.74 µM | EC50 (PPC-1) > 4 µM | EC50 (Jurkat [26]) > 8 µM | EC50 (MCF7 [27]) > 4 µM
> 8 µM (not active): EC50 [16] | EC50 (HEK293 [19])
active: EC50 (HEK293 [9]) 0.672 µM | EC50 (HEK293 [10]) 0.129 µM | EC50 [11] 2.81 µM | EC50 (HEK293 [13]) 0.0604 µM | EC50 (HEK293 [14]) 0.23 µM | EC50 (Jurkat [24]) 2.57 µM
> 4 µM (not active): EC50 [3] | EC50 (HEK293 [7]) | EC50 (HEK293 [8]) | EC50 (HeLa [15]) | EC50 [17] | EC50 [18] | EC50 (HEK293 [20]) | EC50 (HEK293 [21]) | EC50 [22] | EC50 (HEK293 [23]) | EC50 (HEK293 [25])

CCN(CC)CCNC(=O)c1[nH]c2ccc(OCc3ccccc3)cc2c1C
active: CC50 [28] 17 µM | CC50 (Vero [29]) > 25 µM | CC50 (Vero [30]) 29.4 µM | IC50 (Vero [31]) > 25 µM | CC50 [32] 25.6 µM | AC50 (CAAX prenyl protease 2) 14.1 µM | AC50 (CAAX prenyl protease 1) 4.58 µM | AC50 [33] 1.18 µM
